# Reference: PubChem BioAssay AID2842 (Southern Research Institute, 2010)
# Test system: M. tuberculosis H37Rv growth inhibition
# Test: Mycobacterium tuberculosis H37Rv growth inhibition, putative kinase inhibitor library, confirmatory dose response (AID 2842);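 note: bacteria incubated one week before Alamar blue readout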
row,Compound,IC90 [µg/mL]
1,Cc1ccc(-c2nnc(NC(=O)COc3ccccc3)o2)c(C)c1,5.5
2,Cc1ccc(-c2nnc3c4cc5c(cc4n(Cc4cccc(C)c4)cc2-3)OCCO5)cc1,5.76
3,Cc1cc(NC(=O)CSc2nnc(-c3ccncc3)o2)no1,7.04
4,Cc1ccc(-c2nnc(NC(=O)c3ccco3)o2)c(C)c1,4.51
5,Cc1ccc2sc(NNC(=O)c3nc4ccccc4s3)nc2c1C,3.31
6,Cc1ccc(C)c(-c2nnc(NC(=O)c3ccccc3Cl)o2)c1,3.12
7,COc1ccc(C2CC(c3c(-c4ccccc4)c4cc(Br)ccc4[nH]c3=O)=NN2C(=O)c2ccccc2)cc1 (configuration not stated),1.07
8,Cc1nnc(SCC(=O)Nc2ccc3c(c2)OCCO3)n(N)c1=O,23.1
9,O=C(Nc1nnc(-c2ccc3c(c2)OCCO3)o1)c1nc2ccccc2s1,25.8
10,Clc1cccc(Nc2ccc(NCc3ccccc3)nn2)c1,6.71
11,COc1cc(-c2nnc(NC(=O)C(C)(C)C)o2)cc(OC)c1OC,14.5
12,CCCCOc1ccc(C(=O)Nc2nnc(-c3ccncc3)o2)cc1,3.42
13,CCOC(=O)c1sc(NC(=O)CCSc2ccccc2)cc1C,0.82
14,Fc1cccc2sc(Nc3nc(-c4ccccn4)cs3)nc12,< 0.2
15,CC(=O)N1CCc2c(sc(NC(=O)c3ccc(-c4ccccc4)cc3)c2C(N)=O)C1,20.4
16,O=C(Nc1nccs1)c1ccc2c(c1)CCCC2,3.85
17,CC(C)c1cc(-c2nc(-c3ccccc3)no2)n[nH]1,12.7
18,COc1ccc(N2CC(c3nc4ccccc4n3Cc3ccccc3C)CC2=O)cc1 (configuration not stated),20.1
19,COc1cccc(-c2nnc(NC(=O)C(C)C)o2)c1,32.7
20,COc1ccc(-c2nnc(NC(=O)c3ccc(Cl)s3)o2)cc1,0.94
21,O=C(Nc1ccc(S(=O)(=O)N2CCC(c3nc4ccccc4[nH]3)CC2)cc1)c1cccc(Cl)c1,0.86
22,Cc1cc(C)c2nc(C(F)(F)F)nc(NC(C)CCc3ccccc3)c2c1 (configuration not stated),7.61
23,O=C1C(Cl)=C(Nc2ccccc2O)C(=O)N1c1ccc(Cl)c(Cl)c1,0.84
24,O=C(c1ccco1)N(CCCn1ccnc1)c1nc2c(F)cc(F)cc2s1,0.75
25,O=C(Cc1cccc2ccccc12)Nc1nnc(-c2cc(Cl)ccc2Cl)o1,94.5
26,CC(C)(C)c1ccc(C(=O)Nc2nc(-c3ccc4c(c3)OCO4)cs2)cc1,6.72

row,Compound,IC90 [µg/mL]
1,O=C(Nc1nnc(-c2ccc(Br)cc2)o1)c1ccc(S(=O)(=O)N2CCOCC2)cc1,5.28
2,COc1ccccc1N1CCN(c2nc(Nc3ccc(C)c(C)c3)c3nccnc3n2)CC1,1.68
3,O=C(/C=C/c1cccs1)N(CCCn1ccnc1)c1nc2ccccc2s1,1.43
4,CC1(C)CC(=O)c2sc(NC(=O)c3ccc(NS(=O)(=O)c4ccc(Cl)cc4)cc3)nc2C1,15.5
5,O=c1cnnc(N/N=C/c2cc(Br)ccc2O)[nH]1,< 0.2
6,O=C(CCc1ccccc1)Nc1nnc(-c2ccc3c(c2)CCCC3)o1,30
7,Cc1ccc(-c2nnc(NC(=O)c3ccc([N+](=O)[O-])o3)o2)c(C)c1,0.69
8,Cc1ccc(C)c(-c2nnc(NC(=O)Cc3cccc4ccccc34)o2)c1,6.3
9,COc1ccc2nc(Nc3ccc4nc(C)sc4c3)sc2c1,15.2
10,O=C(CCSc1ccccc1)Nc1nc(-c2ccccn2)cs1,21.8
11,N=c1sc(/C=C2\C=Nc3ccccc32)c(O)n1-c1nccs1,< 0.2
12,COc1ccc2c(c1)c(=O)c(C(=O)c1ccc(Cl)cc1)cn2Cc1ccccc1,6.44
13,N#CC1=C(N)OC2=C(C(=O)CC(c3ccccc3)C2)C1C1CCCCC1 (configuration not stated),7.8
14,O=C(/C=C/c1cccs1)Nc1nnc(-c2ccc3c(c2)OCCO3)o1,37
15,Cc1ccc(C)c(-c2nnc(NC(=O)/C=C/c3cccs3)o2)c1,54.5
16,CC(C)(C)C(=O)Nc1nnc(-c2ccc3c(c2)CCCC3)o1,4.73
17,CCc1cccc2sc(N(CCCn3ccnc3)C(=O)/C=C/c3cccs3)nc12,0.83
18,O=C(Nc1nnc(-c2ccc3c(c2)CCCC3)o1)c1ccc(F)cc1,21.6
19,COc1ccc2nc(Nc3nc4c(s3)C(=O)CC(C)(C)C4)sc2c1,15.7
20,NC(=O)C1CCN(C2=NC(=O)/C(=C\c3ccc(Cl)cc3Cl)S2)CC1,< 0.2
21,O=C(COc1ccc2c3c(c(=O)oc2c1)CCCC3)OC1CCCCC1,9.71
22,OCCN1CCN(c2ncnc3c2cnn3-c2ccc(Cl)c(Cl)c2)CC1,14.9
23,COc1cc2c3nnc(-c4ccc(C)cc4)c-3cn(Cc3cccc(C)c3)c2cc1OC,28.3
24,Cc1cc(NC2CCCC2)n2ncc(-c3ccccc3)c2n1,9.88
25,Cc1cccc2nc(NC(=O)c3ccc(Oc4ccccc4)cc3)sc12,8.53
26,Cc1ccc(-c2nnc(NC(=O)C3CCCCC3)o2)c(C)c1,8.75
